# Values joined by “and” are separate entries in the source; they are usually repeats but may differ in a detail not shown here. Identical values can stand only once. Like-named read-outs stand apart in the source and are kept apart here.
# Key:
# RiSTING [1] = test: ITC binding of cGG to RiSTING; parameters: species or system Riemerella anatipestifer
# Protocol: (§1) ITC experiments were performed at 25 °C using nano-ITC (TA Instruments). Purified RiSTING and ElSTING were exchanged into assay buffer containing 20 mM Tris pH 8.0, 150 mM NaCl. 10 mM stock of cGG (Item No. 17144, Cayman Chemical) and cAA (Item No. 17753, Cayman Chemical) were prepared by dissolving in the same buffer. 20 injections of ligand (0.9-1.2 mM) were sequentially titrated to tested STING protein solution (30-100 μM) with a stirring speed of 300 rpm. Data were fit to “independent” model to derive ΔH, ΔS, and Kd values using NanoAnalyze v3.12.5 (TA Instruments).
# RiSTING [2] = test: Dynamic light scattering of RiSTING with or without cGG; parameters: species or system Riemerella anatipestifer; conditions: two molar excesses of cGG; 84% of particles; 9.0 nm without cGG
# Protocol: The DLS experiments were performed using Zetasizer Nano ZS90 (Malvern instruments). Briefly, protein samples containing 1 mg/ml RiSTING in the presence or absence of 2-fold molar excess of cGG were prepared and degassed. Polydispersity index (PDI) and globule size were examined at 25 °C.
# MyTIR-STING = test: NAD+ cleavage activity assay, MyTIR-STING (control); type: biochemical; conditions: 1 μM cGG
# Protocol: (§2) The NAD^+ cleavage activity of the N-terminal TIR domain of full-length TIR-STING proteins were accessed using the previously described protocol. Briefly, 100 μl reaction mixture containing ligand (cGG or cAA) at the indicated concentration and 500 μM ε-NAD (Product No. N2630, Sigma-Aldrich) in the assay buffer (20 mM HEPES pH 7.5, 100 mM KCl) was pre-incubated at room temperature. Tested TIR-STING protein (0.5–1 μM) was then added to start the reaction. The fluorescence signal was continuously monitored for 1 hour at an emission wavelength of 410 nm with excitation at 300 nm using Synergy H1 microplate reader (BioTek). The changes of relative fluorescence units at different time points were recorded.
# [3] = target: oligomerization mutant ElTIR-STING^D175R,S179R (Epilithonimonas lactis DSM 19921); test: SEC; gel-filtration analysis of full-length ElTIR-STING in the presence of cAA at 2-fold molar excess
# [4] = target: oligomerization mutant ElTIR-STING^D175R,S179R (Epilithonimonas lactis DSM 19921); test: SEC; gel-filtration analysis of full-length ElTIR-STING in the absence of cAA
# [5] = tested on: T2 phage infection of E. coli cells overexpressing ElTIR-STING; type: cell-based, E. coli BL21(DE3) / phage T2; conditions: for OD600: replicates 1-3
# [6] = tested on: E. coli cells overexpressing ElTIR-STING; test: E. coli toxicity assay (growth curves), ElTIR-STING with or without cAA; type: cell-based, E. coli BL21(DE3); conditions: for OD600: replicates 1-3
# Protocol: To access the cytotoxicity of TIR-STING proteins and their variants, E. coli BL21(DE3) cells which produce endogenous cGG were used. The cells carrying expression plasmid pET21 or pET24 with indicated TIR-STING were first inoculated into 3-ml LB medium and incubated at 37 °C with shaking overnight. The overnight culture was then diluted by fresh LB medium to an optical density at 600 nm (O.D.600) of ~0.1-0.2, followed by addition of 0.5 mM IPTG and 30 mM nicotinamide to induce the overexpression of tested proteins. […] To access the anti-phage ability of full-length LrTIR-STING, E. coli BL21(DE3) cells containing empty vector, pET24_LrTIR-STING or pET24_LrTIR-STING lid-to-loop mutant was first cultivated at 37 °C overnight and then diluted with fresh medium to O.D.600 of 0.1-0.2, followed by 0.5 mM IPTG induction and infected with T2 phage at a multiplicity of infection (MOI) of 10 or 0.01. The E. coli BL21(DE3) cells without IPTG induction and T2 phage infection was served as control.
# ElTIR-STING [7] = test: NAD+ cleavage activity assay, ElTIR-STING; type: biochemical, Epilithonimonas lactis; conditions: for ΔRFU after 10 mins (single replicates): 500 μM ε-NAD; for ΔRFU after 10 mins, Average: n = 3
# Protocol: as §2
# ElTIR-STING [8] = test: Gel filtration / SEC-MALS of ElTIR-STING with cAA; parameters: species or system Epilithonimonas lactis
# Protocol: Purified protein samples for SEC-MALS analysis were diluted in buffer containing 50 mM Tris pH 8.0, 200 mM NaCl, 1 mM TCEP to a final concentration of 1 mg/ml. The protein sample was incubated with 0.11 mM cyclic di-nucleotide at 4 °C for 1 hour, followed by centrifugation at 4 °C, 18,000x g for 30 mins to remove precipitated proteins. The final protein sample was analyzed using GE AKTA UPC Purifier FPLC system coupled to a Wyatt Optilab T-rex refractive index detector and a Wyatt miniDAWN TREOS to obtain O.D.280, molar mass and refractive index (dRI).
# ElSTING = test: ITC binding of cAA to ElSTING; parameters: species or system Epilithonimonas lactis; conditions: ITC (Supplementary Fig. 5)
# Protocol: as §1
compound,measurement,setting,value
"Nc1nc2c(ncn2[C@@H]2O[C@@H]3COP(=O)(O)O[C@H]4[C@@H](O)[C@H](n5cnc6c(=O)[nH]c(N)nc65)O[C@@H]4COP(=O)(O)O[C@H]3[C@H]2O)c(=O)[nH]1 [cGG, 3′3′-cyclic di-GMP]",binding affinity (in words),RiSTING [1],nanomolar affinity
same,Kd,"RiSTING [1]; 25 °C, 20 mM Tris pH 8.0, 150 mM NaCl, read-out: dissociation constant (Kd)",0.1 nM
same,major particle size of RiSTING,RiSTING [2],40.6 nm
same,"ΔRFU after 10 mins, Average",MyTIR-STING; n = 3,31574 RFU
same,ΔRFU after 10 mins (single replicates),MyTIR-STING; positive control,32209 RFU and 31707 RFU and 30806 RFU
"oligomerization mutant ElTIR-STING^D175R,S179R (natural protein)",stoichiometry N,[3],6 and 2
same,stoichiometry N,[4],6 and 2
"Nc1ncnc2c1ncn2[C@@H]1O[C@@H]2COP(=O)(O)O[C@H]3[C@@H](O)[C@H](n4cnc5c(N)ncnc54)O[C@@H]3COP(=O)(O)O[C@H]2[C@H]1O [cAA, 3′3′-cyclic di-AMP]",resistance to phage infection (in words),"[5]; 100 μM cAA in growth medium, T2 phage",did not confer resistance
same,OD600,"[5]; MOI = 0.01, time 30 min",0.015 and 0.017 and 0.016
same,OD600,"[5]; MOI = 0.01, time 45 min",0.021 and 0.024 and 0.023
same,OD600,"[5]; MOI = 0.01, time 60 min",0.030 (2×) and 0.032
same,OD600,"[5]; MOI = 0.01, time 75 min",0.036 (2×) and 0.038
same,OD600,"[5]; MOI = 0.01, time 90 min",0.040 (2×) and 0.043
same,OD600,"[5]; MOI = 0.01, time 105 min",0.042 and 0.045 and 0.041
same,OD600,"[5]; MOI = 0.01, time 120 min",0.046 (2×) and 0.050
same,OD600,"[5]; MOI = 0.01, time 135 min",0.050 and 0.053 and 0.049
same,OD600,"[5]; MOI = 0.01, time 150 min",0.054 and 0.057 and 0.062
same,OD600,"[5]; MOI = 0.01, time 165 min",0.058 and 0.060 and 0.056
same,OD600,"[5]; MOI = 0.01, time 180 min",0.061 and 0.064 and 0.058
same,OD600,"[5]; MOI = 1, time 30 min",0.017 and 0.015 and 0.011
same,OD600,"[5]; MOI = 1, time 45 min",0.019 and 0.018 and 0.012
same,OD600,"[5]; MOI = 1, time 60 min",0.021 and 0.019 and 0.014
same,OD600,"[5]; MOI = 1, time 75 min",0.021 and 0.020 and 0.015
same,OD600,"[5]; MOI = 1, time 90 min",0.023 and 0.021 and 0.016
same,OD600,"[5]; MOI = 1, time 105 min",0.025 and 0.023 and 0.018
same,OD600,"[5]; MOI = 1, time 120 min",0.027 and 0.025 and 0.019
same,OD600,"[5]; MOI = 1, time 135 min",0.028 and 0.025 and 0.020
same,OD600,"[5]; MOI = 1, time 150 min",0.029 and 0.027 and 0.021
same,OD600,"[5]; MOI = 1, time 165 min",0.030 and 0.028 and 0.022
same,OD600,"[5]; MOI = 1, time 180 min",0.030 and 0.029 and 0.022
same,OD600,"[5]; Uninfected, time 30 min",0.025 and 0.017 (2×)
same,OD600,"[5]; Uninfected, time 45 min",0.032 and 0.023 and 0.024
same,OD600,"[5]; Uninfected, time 60 min",0.034 and 0.033 (2×)
same,OD600,"[5]; Uninfected, time 75 min",0.049 and 0.047 and 0.046
same,OD600,"[5]; Uninfected, time 90 min",0.067 and 0.064 and 0.063
same,OD600,"[5]; Uninfected, time 105 min",0.091 and 0.087 (2×)
same,OD600,"[5]; Uninfected, time 120 min",0.121 and 0.117 and 0.116
same,OD600,"[5]; Uninfected, time 135 min",0.160 and 0.155 and 0.152
same,OD600,"[5]; Uninfected, time 150 min",0.208 and 0.200 and 0.197
same,OD600,"[5]; Uninfected, time 165 min",0.262 and 0.252 and 0.247
same,OD600,"[5]; Uninfected, time 180 min",0.327 and 0.313 and 0.308
same,OD600,"[5]; Uninfected, time 195 min",0.398
same,OD600,"[6]; time 0 min, 300 μM cAA (Fig. 4b legend)",0.028 (2×) and 0.026
same,OD600,"[6]; time 20 min, 300 μM cAA",0.036 and 0.037 and 0.034
same,OD600,"[6]; time 40 min, 300 μM cAA",0.056 (2×) and 0.054
same,OD600,"[6]; time 60 min, 300 μM cAA",0.083 (2×) and 0.079
same,OD600,"[6]; time 80 min, 300 μM cAA",0.125 and 0.124 and 0.119
same,OD600,"[6]; time 100 min, 300 μM cAA",0.186 and 0.183 and 0.175
same,OD600,"[6]; time 120 min, 300 μM cAA",0.252 (2×) and 0.244
same,OD600,"[6]; time 140 min, 300 μM cAA",0.33 and 0.331 and 0.326
same,OD600,"[6]; time 160 min, 300 μM cAA",0.408 (2×) and 0.41
same,OD600,"[6]; time 180 min, 300 μM cAA",0.503 and 0.497 and 0.506
same,OD600,"[6]; time 200 min, 300 μM cAA",0.563 and 0.565 and 0.575
same,OD600,"[6]; time 220 min, 300 μM cAA",0.612 and 0.615 and 0.627
same,OD600,"[6]; time 240 min, 300 μM cAA",0.66 (2×) and 0.677
same,OD600,"[6]; time 260 min, 300 μM cAA",0.7 and 0.704 and 0.715
same,OD600,"[6]; time 280 min, 300 μM cAA",0.73 and 0.732 and 0.743
same,OD600,"[6]; time 300 min, 300 μM cAA",0.765 and 0.764 and 0.784
same,OD600,"[6]; time 320 min, 300 μM cAA",0.798 and 0.804 and 0.81
same,OD600,"[6]; time 340 min, 300 μM cAA",0.822 and 0.831 and 0.839
same,OD600,"[6]; time 360 min, 300 μM cAA",0.854 and 0.863 and 0.865
same,OD600,"[6]; time 380 min, 300 μM cAA",0.875 and 0.886 and 0.885
same,OD600,"[6]; time 400 min, 300 μM cAA",0.892 and 0.904 and 0.902
same,OD600,"[6]; time 420 min, 300 μM cAA",0.901 and 0.917 and 0.912
same,OD600,"[6]; time 440 min, 300 μM cAA",0.911 and 0.927 and 0.92
same,OD600,"[6]; time 460 min, 300 μM cAA",0.919 and 0.935 and 0.929
same,OD600,"[6]; time 480 min, 300 μM cAA",0.926 and 0.943 and 0.935
same,OD600,"[6]; time 500 min, 300 μM cAA",0.933 and 0.952 and 0.942
same,effect on growth of E. coli expressing ElTIR-STING (in words),[6]; with vs without addition of cAA and vs empty vector,no differences
same,ΔRFU after 10 mins (single replicates),ElTIR-STING [7]; 1 μM cAA,3735 RFU and 3756 RFU and 9276 RFU
same,"ΔRFU after 10 mins, Average",ElTIR-STING [7]; 1 μM cAA,5589 RFU
same,ΔRFU after 10 mins (single replicates),ElTIR-STING [7]; 10 μM cAA,3586 RFU and 4211 RFU and 4642 RFU
same,"ΔRFU after 10 mins, Average",ElTIR-STING [7]; 10 μM cAA,4146 RFU
same,ΔRFU after 10 mins (single replicates),ElTIR-STING [7]; 100 μM cAA,4282 RFU and 3852 RFU and 4467 RFU
same,"ΔRFU after 10 mins, Average",ElTIR-STING [7]; 100 μM cAA,4200 RFU
same,activation of NAD+ cleavage activity (in words),"ElTIR-STING [7]; full-length ElTIR-STING, up to 100 μM cAA",could not activate
same,molecular weight of cAA-induced ElTIR-STING oligomer,"ElTIR-STING [8]; SEC-MALS, 0.11 mM cyclic di-nucleotide",3937–7883 kDa
same,oligomeric state induced (in words),"ElTIR-STING [8]; gel filtration, 2-fold molar excess of cAA, dimeric without ligand",large oligomers
same,binding affinity (in words),ElSTING,micromolar affinity

# — article PMC10739871, “Structural insights into the regulation, ligand recognition, and oligomerization of bacterial STING” (Nature Communications, 2023)
